Measured values: the NIST ThermoML archive (doi:10.1016/j.jct.2015.12.027)

Legend:
[1] = xn = mol fraction of the nth substance listed; conditions: 81.5 kPa, Liquid, Vibrating tube method
[2] = refractive index (Na D-line) (dimensionless); xn = mol fraction of the nth substance listed; conditions: 81.5 kPa, Liquid, Standard Abbe refractometry

ClCCCl [1,2-dichloroethane] + c1ccccc1
Conditions	mass density, 293.15 K [kg/m3]	mass density, 303.15 K [kg/m3]	mass density, 313.15 K [kg/m3]	mass density, 323.15 K [kg/m3]	mass density, 333.15 K [kg/m3]	refractive index, 293.15 K	refractive index, 303.15 K	refractive index, 313.15 K	refractive index, 323.15 K	refractive index, 333.15 K
[1], x1 = 0.1002	911.76	900.68	889.51	878.27	866.86	–	–	–	–	–
[1], x1 = 0.207	947.74	936.23	924.62	912.92	901.08	–	–	–	–	–
[1], x1 = 0.3043	981.38	969.5	957.49	945.42	933.17	–	–	–	–	–
[1], x1 = 0.4032	1016.56	1004.31	991.92	979.41	966.77	–	–	–	–	–
[1], x1 = 0.5005	1052.14	1039.52	1026.72	1013.82	1000.75	–	–	–	–	–
[1], x1 = 0.5975	1088.72	1075.72	1062.52	1049.18	1035.66	–	–	–	–	–
[1], x1 = 0.7235	1137.85	1124.32	1110.59	1096.67	1082.64	–	–	–	–	–
[1], x1 = 0.8005	1168.91	1155.04	1140.95	1126.76	1112.37	–	–	–	–	–
[1], x1 = 0.8918	1206.83	1192.59	1178.02	1163.49	1148.78	–	–	–	–	–
[1], x1 = 1	1252.82	1238.27	1223.53	1208.61	1193.61	–	–	–	–	–
[2], x1 = 0.1002	–	–	–	–	–	1.49506	1.48919	1.48273	1.477	1.47091
[2], x1 = 0.207	–	–	–	–	–	1.48849	1.48273	1.47644	1.4708	1.46486
[2], x1 = 0.3043	–	–	–	–	–	1.48263	1.47694	1.47079	1.46522	1.45939
[2], x1 = 0.4032	–	–	–	–	–	1.47684	1.47123	1.46522	1.45971	1.45398
[2], x1 = 0.5005	–	–	–	–	–	1.47135	1.46581	1.45994	1.45449	1.44884
[2], x1 = 0.5975	–	–	–	–	–	1.46605	1.46058	1.45484	1.44943	1.44387
[2], x1 = 0.7235	–	–	–	–	–	1.45935	1.45396	1.44838	1.44302	1.43756
[2], x1 = 0.8005	–	–	–	–	–	1.45531	1.44995	1.44445	1.43912	1.43372
[2], x1 = 0.8918	–	–	–	–	–	1.4505	1.44519	1.43979	1.43449	1.42916
[2], x1 = 1	–	–	–	–	–	1.44472	1.43948	1.43423	1.42897	1.42373

Brc1ccccc1 [bromobenzene] + ClCCCl
Conditions	mass density, 293.15 K [kg/m3]	mass density, 303.15 K [kg/m3]	mass density, 313.15 K [kg/m3]	mass density, 323.15 K [kg/m3]	mass density, 333.15 K [kg/m3]	refractive index, 293.15 K	refractive index, 303.15 K	refractive index, 313.15 K	refractive index, 323.15 K	refractive index, 333.15 K
[1], x2 = 0	1495.52	1481.97	1468.41	1454.85	1441.22	–	–	–	–	–
[1], x2 = 0.1031	1475.66	1461.99	1448.3	1434.54	1420.74	–	–	–	–	–
[1], x2 = 0.2005	1455.9	1442.07	1428.17	1414.26	1400.29	–	–	–	–	–
[1], x2 = 0.3001	1434.62	1420.64	1406.6	1392.5	1378.34	–	–	–	–	–
[1], x2 = 0.3997	1412.26	1398.16	1383.98	1369.73	1355.39	–	–	–	–	–
[1], x2 = 0.4996	1388.86	1374.68	1360.39	1345.98	1331.47	–	–	–	–	–
[1], x2 = 0.6001	1364.37	1350.09	1335.69	1321.15	1306.48	–	–	–	–	–
[1], x2 = 0.6993	1339.1	1324.73	1310.2	1295.56	1280.77	–	–	–	–	–
[1], x2 = 0.7993	1312.25	1297.77	1283.16	1268.43	1253.56	–	–	–	–	–
[1], x2 = 0.8986	1283.81	1269.28	1254.59	1239.77	1224.87	–	–	–	–	–
[2], x2 = 0	–	–	–	–	–	1.55981	1.55442	1.5489	1.54319	1.53742
[2], x2 = 0.1031	–	–	–	–	–	1.55145	1.5466	1.54165	1.53652	1.53135
[2], x2 = 0.2005	–	–	–	–	–	1.54415	1.53939	1.53455	1.52957	1.52458
[2], x2 = 0.3001	–	–	–	–	–	1.53597	1.53114	1.52627	1.5213	1.51632
[2], x2 = 0.3997	–	–	–	–	–	1.5262	1.52135	1.51645	1.51147	1.5065
[2], x2 = 0.4996	–	–	–	–	–	1.51453	1.50972	1.50487	1.49994	1.49501
[2], x2 = 0.6001	–	–	–	–	–	1.50149	1.49679	1.49202	1.48719	1.48235
[2], x2 = 0.6993	–	–	–	–	–	1.48764	1.48301	1.47833	1.47357	1.46881
[2], x2 = 0.7993	–	–	–	–	–	1.47349	1.46883	1.46414	1.45938	1.45461
[2], x2 = 0.8986	–	–	–	–	–	1.45961	1.45476	1.44989	1.44499	1.44008

Clc1ccccc1 [chlorobenzene] + ClCCCl
Conditions	mass density, 293.15 K [kg/m3]	mass density, 303.15 K [kg/m3]	mass density, 313.15 K [kg/m3]	mass density, 323.15 K [kg/m3]	mass density, 333.15 K [kg/m3]	refractive index, 293.15 K	refractive index, 303.15 K	refractive index, 313.15 K	refractive index, 323.15 K	refractive index, 333.15 K
[1], x2 = 0	1106.49	1095.71	1084.86	1073.96	1063.01	–	–	–	–	–
[1], x2 = 0.1022	1117.76	1106.63	1095.44	1084.22	1073.02	–	–	–	–	–
[1], x2 = 0.2027	1129.4	1117.99	1106.5	1094.94	1083.38	–	–	–	–	–
[1], x2 = 0.3126	1142.87	1131.14	1119.28	1107.34	1095.38	–	–	–	–	–
[1], x2 = 0.4014	1154.41	1142.36	1130.2	1117.94	1105.63	–	–	–	–	–
[1], x2 = 0.4994	1167.89	1155.52	1142.99	1130.34	1117.61	–	–	–	–	–
[1], x2 = 0.6002	1182.73	1169.98	1157.05	1143.96	1130.77	–	–	–	–	–
[1], x2 = 0.7	1198.46	1185.33	1171.98	1158.43	1144.78	–	–	–	–	–
[1], x2 = 0.7999	1215.33	1201.74	1187.98	1173.96	1159.89	–	–	–	–	–
[1], x2 = 0.9007	1233.56	1219.46	1205.18	1190.75	1176.31	–	–	–	–	–
[2], x2 = 0	–	–	–	–	–	1.52455	1.51902	1.51346	1.50781	1.50223
[2], x2 = 0.1022	–	–	–	–	–	1.51915	1.51376	1.50848	1.50327	1.49826
[2], x2 = 0.2027	–	–	–	–	–	1.51388	1.50871	1.50361	1.49855	1.49366
[2], x2 = 0.3126	–	–	–	–	–	1.50734	1.50235	1.49739	1.4924	1.4875
[2], x2 = 0.4014	–	–	–	–	–	1.50115	1.49625	1.49135	1.48642	1.48154
[2], x2 = 0.4994	–	–	–	–	–	1.49334	1.48847	1.48362	1.47874	1.47393
[2], x2 = 0.6002	–	–	–	–	–	1.48436	1.47949	1.47465	1.4698	1.46504
[2], x2 = 0.7	–	–	–	–	–	1.47478	1.46991	1.46504	1.46017	1.45535
[2], x2 = 0.7999	–	–	–	–	–	1.46481	1.45993	1.455	1.45001	1.44502
[2], x2 = 0.9007	–	–	–	–	–	1.45465	1.44969	1.44464	1.43948	1.43427

O=[N+]([O-])c1ccccc1 [nitrobenzene] + ClCCCl
Conditions	mass density, 293.15 K [kg/m3]	mass density, 303.15 K [kg/m3]	mass density, 313.15 K [kg/m3]	mass density, 323.15 K [kg/m3]	mass density, 333.15 K [kg/m3]	refractive index, 293.15 K	refractive index, 303.15 K	refractive index, 313.15 K	refractive index, 323.15 K	refractive index, 333.15 K
[1], x2 = 0	1203.05	1193.15	1183.21	1173.27	1163.32	–	–	–	–	–
[1], x2 = 0.1008	1206.99	1196.83	1186.61	1176.36	1166.07	–	–	–	–	–
[1], x2 = 0.1993	1211.04	1200.58	1190.03	1179.45	1168.82	–	–	–	–	–
[1], x2 = 0.3	1215.35	1204.56	1193.66	1182.68	1171.66	–	–	–	–	–
[1], x2 = 0.3997	1219.84	1208.67	1197.36	1185.98	1174.52	–	–	–	–	–
[1], x2 = 0.4991	1224.55	1212.96	1201.23	1189.39	1177.48	–	–	–	–	–
[1], x2 = 0.6004	1229.62	1217.53	1205.32	1193	1180.62	–	–	–	–	–
[1], x2 = 0.7006	1234.94	1222.31	1209.57	1196.72	1183.82	–	–	–	–	–
[1], x2 = 0.801	1240.51	1227.39	1214.06	1200.58	1187.03	–	–	–	–	–
[1], x2 = 0.8997	1246.65	1232.66	1218.68	1204.5	1190.22	–	–	–	–	–
[2], x2 = 0	–	–	–	–	–	1.55241	1.54763	1.54288	1.53795	1.53289
[2], x2 = 0.1008	–	–	–	–	–	1.54317	1.53879	1.53437	1.52975	1.52496
[2], x2 = 0.1993	–	–	–	–	–	1.5343	1.53004	1.52579	1.5214	1.5169
[2], x2 = 0.3	–	–	–	–	–	1.5252	1.52093	1.51672	1.51243	1.5081
[2], x2 = 0.3997	–	–	–	–	–	1.51592	1.51157	1.5073	1.50299	1.49867
[2], x2 = 0.4991	–	–	–	–	–	1.5061	1.50165	1.49727	1.49286	1.48847
[2], x2 = 0.6004	–	–	–	–	–	1.49525	1.49071	1.48623	1.48171	1.4772
[2], x2 = 0.7006	–	–	–	–	–	1.48353	1.47893	1.47436	1.46977	1.46518
[2], x2 = 0.801	–	–	–	–	–	1.47088	1.46619	1.46154	1.45687	1.45224
[2], x2 = 0.8997	–	–	–	–	–	1.45787	1.453	1.44817	1.44337	1.43861
